Data from patent US6900024B2, “T cell receptor ligands and methods of using same” (The United States of America as represented by the …, priority 1993, dated 2005).
Ends that are not written are not given here. * marks the point of attachment. long‑chain biotin = O=C(CCCC[C@@H]1SC[C@@H]2NC(=O)N[C@@H]21)NCCCCCC(=O)*

What was measured:
[1] = test system: MHC molecules with kss Eβ chains; assay: Peptide binding to cell-associated class II MHC molecules using biotinylated peptides; parameters: species or system mouse
Procedure: A modified version of the assay described in Busch et al., Int. Immunol., 2, 443-51 (1990), was used to measure peptide binding to cell-associated class II MHC molecules. After extensive washing in phosphate buffered saline (PBS)-1% bovine serum albumin (BSA), 2×10^5 DAP.3 cells or DAP.3 transfectants expressing various EαEβ molecules were incubated at 37° C. in 200 μl of PBS-2% FCS containing the indicated concentration of biotinylated peptide. In the competition experiments competitors were added at the same time as labeled peptide and at the indicated concentrations. After 4 hours, the cells were washed and stained with a sandwich of FITC-avidin (Vector), biotinylated-anti-avidin (Vector), and FITC-avidin (Vector). After washing, the cells were analyzed on a FAScan flow cytometer for fluorescence. Only viable cells were considered in the analysis, as determined by PI staining. The data are expressed as net mean fluorescence intensity (MFI), calculated by subtracting from the actual MFI the MFI obtained by staining in the absence of biotinylated-peptide. Percent inhibition in the competition experiments was calculated as: % of I=(net MFI without competitor−net MFI with competitor)/(net MFI without […]).

[2] = test system: 3C6 Th1 cells; assay: IL-2 production by 3C6 Th1 cells co-cultured with transfected L cells (CTLL indicator cells); assay type: cell-based, mouse; conditions: L cells expressing MHC molecules with kss Eβ chains
Procedure: Production of IL-2 and IL-3 in response to L cell transfectants in the presence or absence of added peptide was measured as described in Ronchese et al., Nature, 329, 254-6 (1987b). In brief, 2−5×10^4 T cells were incubated with 2−5×10^4 transfected L cells in the wells of 96-well flat bottom culture plates in 200 μl of complete medium with or without various concentrations of peptide antigen. Supernatants were collected after 24 hours and assayed for IL-2 content using CTLL indicator cells, or for IL-3 content using FDC.1 cells. IL-2 and IL-3 units were calculated as the inverse of the dilution giving 50% of the maximum ^3H-thymidine incorporation by CTLL (IL-2) or FDC.1 (IL-3) cells observed with reference IL-2 and IL-3 preparations. Proliferative responses were measured by assessing ^3H-thymidine incorporation between 48-66 hrs of culture. For experiments in which the data are expressed as “% max” or “% alloresponse”, the actual absolute 100% responses were: IL-2 alloresponse, 10-40 units/ml; IL-3 alloresponse, 100-500 units/ml; IL-2 response to EαEβ^k plus PCC peptide, 150-300 units/ml; IL-3 response to EαEβ^k plus PCC peptide, 1000-10,000 units/ml; IL-2 response to fixed cells bearing EαEβ^k plus PCC peptide, 30-50 units/ml; IL-3 response to fixed cells bearing EαEβ^k plus PCC peptide, 50-200 units/ml. […]

Substance | binding to MHC molecule with kss chains, competition for binding of biotinylated-DASP ([1]; biotinylated-DASP 25 μM, FIG. 2A) | effect of peptide on alloreactive stimulation of IL-2 production [2] | direct binding of biotinylated peptide to MHC molecules with kss chains ([1]; FIG. 3A)
HEL 46-61: hen egg lysozyme (HEL) peptide 46-61 | able to bind the MHC molecule with kss chains to a similar extent as the inhibitory PCC 81-104 peptide | – | –
HEL 81-96: hen egg lysozyme (HEL) peptide 81-96, with NH2-terminal long-chain biotin in FIG. 3 ({long‑chain biotin}-SALLSSDITASVNCAK; UniProt P00698 99-114, looked up, fragment) | – | lacked ability to inhibit alloreactive stimulation of IL-2 production | bound well to the MHC molecules with kss chains
